# Laboratory results: PubChem BioAssay AID328 (DTP/NCI, 2004)
# Values joined by “and” are separate entries in the source; they are usually repeats but may differ in a detail not shown here. Equal values may be shown once. Inconclusive results and toxic doses are left out.
# Test system: BDF1 mice, P388 leukemia ip, median survival T/C
# Assay: NCI In Vivo Anticancer Drug Screen. Data for tumor model P388 Leukemia (intraperitoneal) in B6D2F1 (BDF1) mice
# Conditions: endpoint: median survival time, higher = longer survival
# How it was run: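 T/C = treated-group survival ÷ vehicle-control survival; tumour transplanted into mice before dosing.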
# [1] = dose: 100.0 mg/kg/injection, schedule: Q01DX009 (ip), vehicle: saline with Tween-80
# [2] = dose: 400.0 mg/kg/injection, schedule: Q01DX009 (ip), vehicle: saline with Tween-80
# [3] = dose: 25.0 mg/kg/injection, schedule: Q04DX003 (ip), vehicle: saline with Tween-80
# [4] = dose: 100.0 mg/kg/injection, schedule: Q04DX003 (ip), vehicle: saline with Tween-80
compound,measurement,setting,value
CC1CCC(NC(=O)N(CCCl)N=O)CC1 (configuration not stated),T/C,"dose: 0.66 mg/kg/injection, schedule: Q01DX009 (ip), vehicle: Klucel (hydroxypropylcellulose) (HPC)",97 % of control
same,T/C,"dose: 0.99 mg/kg/injection, schedule: Q01DX009 (ip), vehicle: Klucel (hydroxypropylcellulose) (HPC)",107 % of control
same,T/C,"dose: 1.5 mg/kg/injection, schedule: Q01DX009 (ip), vehicle: Klucel (hydroxypropylcellulose) (HPC)",177 % of control
same,T/C,"dose: 3.1 mg/kg/injection, schedule: Q04DX003 (ip), vehicle: Klucel (hydroxypropylcellulose) (HPC)",154 % of control
same,T/C,"dose: 3.6 mg/kg/injection, schedule: Q01DX009 (ip), vehicle: Klucel (hydroxypropylcellulose) (HPC)",180 % of control
same,T/C,"dose: 4.7 mg/kg/injection, schedule: Q04DX003 (ip), vehicle: Klucel (hydroxypropylcellulose) (HPC)",172 % of control
same,T/C,"dose: 5.0 mg/kg/injection, schedule: Q04DX002 (ip), vehicle: other",168 % of control
same,T/C,"dose: 7.2 mg/kg/injection, schedule: Q04DX003 (ip), vehicle: saline",190 % of control
same,T/C,"dose: 8.3 mg/kg/injection, schedule: Q01DX009 (ip), vehicle: Klucel (hydroxypropylcellulose) (HPC)",250 % of control
same,T/C,"dose: 9.4 mg/kg/injection, schedule: Q04DX003 (ip), vehicle: saline with Tween-80",113 % of control
same,T/C,"dose: 10.0 mg/kg/injection, schedule: Q01DX001 (ip), vehicle: alcohol",119 % of control
same,T/C,"dose: 10.0 mg/kg/injection, schedule: Q04DX002 (ip), vehicle: other",194 % of control
same,T/C,"dose: 10.0 mg/kg/injection, schedule: Q04DX003 (ip), vehicle: saline with Tween-80",209 % of control
same,T/C,"dose: 10.0 mg/kg/injection, schedule: Q04DX003 (ip), vehicle: saline",225 % of control
same,T/C,"dose: 11.0 mg/kg/injection, schedule: Q04DX003 (ip), vehicle: saline with Tween-80",272 % of control
same,T/C,"dose: 12.5 mg/kg/injection, schedule: Q01DX009 (ip), vehicle: Klucel (hydroxypropylcellulose) (HPC)",300 % of control and 120 % of control
same,T/C,"dose: 15.0 mg/kg/injection, schedule: Q04DX003 (ip), vehicle: saline with Tween-80",241 % of control and 322 % of control and 212 % of control
same,T/C,"dose: 16.0 mg/kg/injection, schedule: Q01DX001 (ip), vehicle: saline with Tween-80",322 % of control
same,T/C,"dose: 16.0 mg/kg/injection, schedule: Q04DX003 (ip), vehicle: saline with Tween-80",545 % of control
same,T/C,"dose: 16.5 mg/kg/injection, schedule: Q04DX003 (ip), vehicle: saline",272 % of control
same,T/C,"dose: 18.0 mg/kg/injection, schedule: Q01DX009 (ip), vehicle: Klucel (hydroxypropylcellulose) (HPC)",110 % of control
same,T/C,"dose: 18.75 mg/kg/injection, schedule: Q01DX009 (ip), vehicle: Klucel (hydroxypropylcellulose) (HPC)",100 % of control
same,T/C,"dose: 20.0 mg/kg/injection, schedule: Q04DX002 (ip), vehicle: other",247 % of control
same,T/C,"dose: 20.0 mg/kg/injection, schedule: Q04DX003 (ip), vehicle: saline with Tween-80",258 % of control and 294 % of control and 482 % of control
same,T/C,"dose: 24.0 mg/kg/injection, schedule: Q04DX003 (ip), vehicle: saline with Tween-80",545 % of control
same,T/C,"dose: 25.0 mg/kg/injection, schedule: Q01DX009 (ip), vehicle: Klucel (hydroxypropylcellulose) (HPC)",115 % of control
same,T/C,"dose: 25.0 mg/kg/injection, schedule: Q04DX003 (ip), vehicle: alcohol",300 % of control
same,T/C,"dose: 25.0 mg/kg/injection, schedule: Q04DX003 (ip), vehicle: saline",240 % of control and 272 % of control
same,T/C,"dose: 30.0 mg/kg/injection, schedule: Q04DX003 (ip), vehicle: saline with Tween-80",446 % of control
same,T/C,"dose: 37.5 mg/kg/injection, schedule: Q04DX003 (ip), vehicle: saline",90 % of control and 218 % of control
same,T/C,"dose: 40.0 mg/kg/injection, schedule: Q04DX002 (ip), vehicle: other",117 % of control
same,T/C,"dose: 50.0 mg/kg/injection, schedule: Q04DX003 (ip), vehicle: alcohol",115 % of control
same,T/C,"dose: 54.0 mg/kg/injection, schedule: Q01DX001 (ip), vehicle: saline with Tween-80",499 % of control
CCC(=O)OC(C)COc1ccc(C(C)(C)C)cc1 (configuration not stated),T/C,[1],110 % of control
same,T/C,"dose: 200.0 mg/kg/injection, schedule: Q01DX009 (ip), vehicle: saline with Tween-80",110 % of control
same,T/C,[2],124 % of control
CCC(c1ccc(OC)cc1)C(NCC(=O)NNC(=O)CNC(c1ccc(OC)cc1)C(CC)c1ccc(OC)cc1)c1ccc(OC)cc1 (configuration not stated),T/C,"dose: 12.5 mg/kg/injection, schedule: Q04DX002 (ip), vehicle: saline with Tween-80",110 % of control
same,T/C,"dose: 25.0 mg/kg/injection, schedule: Q04DX002 (ip), vehicle: saline with Tween-80",88 % of control
same,T/C,"dose: 50.0 mg/kg/injection, schedule: Q04DX002 (ip), vehicle: saline with Tween-80",94 % of control
CO[C@H]1C[C@](C)(O)Cc2cc3c(c(O)c21)C(=O)c1c(O)cc2c(c1C3=O)O[C@@H]1O[C@@]2(C)[C@H](O)[C@@H](N(C)C)[C@@H]1O,T/C,"dose: 18.0 mg/kg/injection, schedule: Q04DX003 (ip), vehicle: lactate",228 % of control
same,T/C,"dose: 30.0 mg/kg/injection, schedule: Q04DX003 (ip), vehicle: lactate",271 % of control
same,T/C,"dose: 50.0 mg/kg/injection, schedule: Q04DX003 (ip), vehicle: lactate",107 % of control
NC1(C(=O)O)CCCc2ccc(N(CCCl)CCCl)cc21 (configuration not stated),T/C,"dose: 16.5 mg/kg/injection, schedule: Q04DX003 (ip), vehicle: saline with Tween-80",263 % of control and 272 % of control
same,T/C,[3],272 % of control
same,T/C,"dose: 37.5 mg/kg/injection, schedule: Q04DX003 (ip), vehicle: saline with Tween-80",177 % of control
Cc1cc(NC(=O)Nc2ccc(C3=NCCN3)cc2)ccc1NC(=O)Nc1ccc(C2=NCCN2)cc1,T/C,[1],122 % of control
same,T/C,[2],159 % of control
Fc1nc2nc(C(F)(F)F)[nH]c2nc1F,T/C,"dose: 10.0 mg/kg/injection, schedule: Q01DX009 (ip), vehicle: saline with Tween-80",104 % of control
same,T/C,"dose: 20.0 mg/kg/injection, schedule: Q01DX009 (ip), vehicle: saline with Tween-80",121 % of control
same,T/C,[3],105 % of control
same,T/C,"dose: 40.0 mg/kg/injection, schedule: Q01DX009 (ip), vehicle: saline with Tween-80",120 % of control
same,T/C,"dose: 50.0 mg/kg/injection, schedule: Q04DX003 (ip), vehicle: saline with Tween-80",99 % of control
same,T/C,"dose: 80.0 mg/kg/injection, schedule: Q01DX009 (ip), vehicle: saline with Tween-80",112 % of control
same,T/C,[4],90 % of control and 105 % of control
same,T/C,"dose: 160.0 mg/kg/injection, schedule: Q01DX009 (ip), vehicle: saline with Tween-80",112 % of control
O=C(O)c1cc2c3c(c1)CCCN3CCC2,T/C,[4],90 % of control
same,T/C,"dose: 200.0 mg/kg/injection, schedule: Q04DX003 (ip), vehicle: saline with Tween-80",100 % of control
same,T/C,"dose: 400.0 mg/kg/injection, schedule: Q04DX003 (ip), vehicle: saline with Tween-80",90 % of control
COc1cc(/C=C/c2ccc3ccccc3n2)cc(OC)c1OC,T/C,[4],100 % of control
CCCN(CCC)CCCCO,T/C,"dose: 22.0 mg/kg/injection, schedule: Q04DX003 (ip), vehicle: saline",104 % of control
same,T/C,"dose: 33.0 mg/kg/injection, schedule: Q04DX003 (ip), vehicle: saline",109 % of control
same,T/C,"dose: 50.0 mg/kg/injection, schedule: Q04DX003 (ip), vehicle: saline",104 % of control
same,T/C,"dose: 75.0 mg/kg/injection, schedule: Q04DX003 (ip), vehicle: saline",104 % of control
C/C=C1/C(=O)O[C@]23C=C[C@@H]4C(C(=O)OC)=CO[C@H](O[C@@H]12)[C@@H]43,T/C,"dose: 0.27 mg/kg/injection, schedule: Q01DX009 (ip), vehicle: saline",110 % of control
same,T/C,"dose: 0.55 mg/kg/injection, schedule: Q01DX009 (ip), vehicle: saline",110 % of control
same,T/C,"dose: 1.1 mg/kg/injection, schedule: Q01DX009 (ip), vehicle: saline",110 % of control
same,T/C,"dose: 2.2 mg/kg/injection, schedule: Q01DX009 (ip), vehicle: saline",110 % of control
same,T/C,"dose: 165.0 micrograms/kg/injection, schedule: Q01DX009 (ip), vehicle: Klucel (hydroxypropylcellulose) (HPC)",115 % of control
same,T/C,"dose: 310.0 micrograms/kg/injection, schedule: Q01DX009 (ip), vehicle: Klucel (hydroxypropylcellulose) (HPC)",115 % of control
same,T/C,"dose: 1250.0 micrograms/kg/injection, schedule: Q01DX009 (ip), vehicle: Klucel (hydroxypropylcellulose) (HPC)",115 % of control
NNC(=O)C(O)C(O)C(=O)NN (configuration not stated),T/C,"dose: 60.0 mg/kg/injection, schedule: Q01DX009 (ip), vehicle: saline",96 % of control
same,T/C,"dose: 120.0 mg/kg/injection, schedule: Q01DX009 (ip), vehicle: saline",93 % of control
CCCCCCCCCCCCCCCCn1/c(=N/N=C/c2ccccc2S(=O)(=O)O)sc2ccccc21,T/C,"dose: 100.0 mg/kg/injection, schedule: Q04DX003 (ip), vehicle: Klucel (hydroxypropylcellulose) (HPC)",104 % of control
same,T/C,"dose: 200.0 mg/kg/injection, schedule: Q01DX009 (ip), vehicle: Klucel (hydroxypropylcellulose) (HPC)",95 % of control
same,T/C,"dose: 200.0 mg/kg/injection, schedule: Q04DX003 (ip), vehicle: Klucel (hydroxypropylcellulose) (HPC)",118 % of control
same,T/C,"dose: 400.0 mg/kg/injection, schedule: Q01DX009 (ip), vehicle: Klucel (hydroxypropylcellulose) (HPC)",95 % of control
same,T/C,"dose: 400.0 mg/kg/injection, schedule: Q04DX003 (ip), vehicle: Klucel (hydroxypropylcellulose) (HPC)",95 % of control
